One compound from paper PMC9147192, “Small Molecule Arranged Thermal Proximity Coaggregation (smarTPCA)—A Novel Approach to Characterize Protein–Protein Interactions in Living Cells by Similar Isothermal Dose–Responses” (International Journal of Molecular Sciences, 2022) can be followed below.

As a reminder, the Hill slope is a measure of the steepness of the concentration-response curve.

One test addresses T1, MIA3 (Homo sapiens, UniProt Q5JRA6).
T1 construct: endogenous in cells; host or cells: HL-60 (ATCC CCL-240)
As to the kind of experiment: TPP-CCR in living HL-60 cells. The test is classed as cell-based.

The target of the next test is T2, CHMP4B (Homo sapiens, UniProt Q9H444).
T2 construct: endogenous in cells; host or cells: HL-60 (ATCC CCL-240)
T2 sequence (Q9H444 1-224): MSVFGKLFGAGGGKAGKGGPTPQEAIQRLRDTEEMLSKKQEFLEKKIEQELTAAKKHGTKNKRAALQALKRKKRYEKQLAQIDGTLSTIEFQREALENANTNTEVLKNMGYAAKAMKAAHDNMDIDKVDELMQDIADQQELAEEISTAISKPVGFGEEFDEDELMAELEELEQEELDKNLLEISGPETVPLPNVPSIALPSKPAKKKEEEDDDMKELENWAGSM
As to the kind of experiment: TPP-CCR in living HL-60 cells. The class given is cell-based.

The mark [1] stands for this setting: living HL-60 cells, […] °C, TMT-MS.

T1 sequence (Q5JRA6 23-1907): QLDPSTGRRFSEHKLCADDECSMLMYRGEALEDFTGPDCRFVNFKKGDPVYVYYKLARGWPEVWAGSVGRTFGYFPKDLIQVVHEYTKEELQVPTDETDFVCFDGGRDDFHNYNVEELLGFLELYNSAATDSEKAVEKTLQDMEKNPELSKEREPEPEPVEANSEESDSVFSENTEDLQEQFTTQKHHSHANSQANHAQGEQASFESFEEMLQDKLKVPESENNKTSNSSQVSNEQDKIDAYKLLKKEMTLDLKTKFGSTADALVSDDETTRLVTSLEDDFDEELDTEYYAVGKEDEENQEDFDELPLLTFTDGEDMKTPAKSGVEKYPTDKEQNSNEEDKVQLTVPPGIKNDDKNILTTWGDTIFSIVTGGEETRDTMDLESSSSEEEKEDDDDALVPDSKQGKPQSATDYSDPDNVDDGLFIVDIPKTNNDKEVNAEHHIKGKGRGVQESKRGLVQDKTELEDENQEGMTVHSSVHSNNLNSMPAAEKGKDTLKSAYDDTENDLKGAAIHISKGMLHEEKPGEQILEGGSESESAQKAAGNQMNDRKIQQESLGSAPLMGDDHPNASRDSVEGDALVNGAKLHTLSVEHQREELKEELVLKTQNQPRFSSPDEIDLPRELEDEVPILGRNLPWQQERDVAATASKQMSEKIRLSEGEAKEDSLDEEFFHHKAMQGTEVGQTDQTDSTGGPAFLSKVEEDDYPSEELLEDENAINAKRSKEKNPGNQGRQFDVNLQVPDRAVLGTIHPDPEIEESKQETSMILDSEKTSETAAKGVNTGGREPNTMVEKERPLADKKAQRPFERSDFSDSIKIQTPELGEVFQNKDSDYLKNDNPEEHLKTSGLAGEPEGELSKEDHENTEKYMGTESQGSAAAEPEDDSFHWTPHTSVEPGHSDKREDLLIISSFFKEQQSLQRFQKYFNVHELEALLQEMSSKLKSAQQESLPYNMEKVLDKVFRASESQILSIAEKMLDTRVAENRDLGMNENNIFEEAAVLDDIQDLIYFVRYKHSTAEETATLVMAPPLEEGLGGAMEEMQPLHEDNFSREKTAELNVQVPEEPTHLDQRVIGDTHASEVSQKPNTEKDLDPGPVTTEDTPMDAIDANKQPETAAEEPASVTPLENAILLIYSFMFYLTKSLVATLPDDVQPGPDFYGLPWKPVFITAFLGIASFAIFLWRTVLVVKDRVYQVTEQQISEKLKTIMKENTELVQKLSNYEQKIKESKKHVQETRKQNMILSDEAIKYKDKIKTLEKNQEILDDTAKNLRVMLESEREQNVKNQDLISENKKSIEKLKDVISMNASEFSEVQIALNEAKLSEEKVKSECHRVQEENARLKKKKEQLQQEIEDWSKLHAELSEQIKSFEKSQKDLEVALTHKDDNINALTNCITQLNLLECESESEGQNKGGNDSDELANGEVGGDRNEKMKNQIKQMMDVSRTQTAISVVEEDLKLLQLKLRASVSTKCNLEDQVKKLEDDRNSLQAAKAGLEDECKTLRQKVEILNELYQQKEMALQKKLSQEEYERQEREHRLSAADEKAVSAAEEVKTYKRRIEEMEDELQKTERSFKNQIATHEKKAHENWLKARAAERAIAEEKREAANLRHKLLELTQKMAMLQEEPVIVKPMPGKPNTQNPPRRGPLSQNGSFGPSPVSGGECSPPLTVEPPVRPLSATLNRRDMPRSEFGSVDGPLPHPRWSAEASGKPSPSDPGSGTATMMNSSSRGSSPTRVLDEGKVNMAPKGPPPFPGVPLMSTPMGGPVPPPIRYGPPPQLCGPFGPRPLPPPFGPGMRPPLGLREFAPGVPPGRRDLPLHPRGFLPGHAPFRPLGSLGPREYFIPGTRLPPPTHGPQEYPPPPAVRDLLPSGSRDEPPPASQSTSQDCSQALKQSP

For `Cc1cnc(Nc2ccc(F)cc2Cl)nc1-c1c[nH]c(C(=O)N[C@H](CO)c2cccc(Cl)c2)c1` [ERK 11e], the Hill slope at MIA3 (TPP-CCR, living cells, MIA3) is on record as 0.98; at CHMP4B (TPP-CCR, living cells, CHMP4B) it was 0.21. For the same compound, at MIA3 (setting [1]), the “Hill slope (MIA3)” value is reported as 0.98. In addition, the EC50 at MIA3 (living HL-60 cells, […] °C, TMT-MS, read-out: pEC50 (MIA3) (converted)) was 3.39 µM; at CHMP4B (living HL-60 cells, […] °C, TMT-MS, read-out: pEC50 (CHMP4B) (converted)) it was 0.0417 µM. Further, the “Hill slope (CHMP4B)” value on CHMP4B (setting [1]) is listed as 0.21.
